Consider 2 compounds from the supplement of paper PMC11451515.

A word on the cell viability: it is a read-out of living cells in per cent, often relative to untreated cells.

This assay relates to NOMO1. Briefly: cell viability relative to DMSO control; higher = less cytotoxic. Conditions: 48 h. In outline:
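In 1536-well plates, 5 μl of leukemia cells were seeded per well: 500 cells/well for NOMO1 or SEM and 1000 cells/well for P12-Ichikawa. Each line had first been adapted for at least four passages in each medium. Library compounds in DMSO were pin-dosed at 11 threefold concentrations between 47 μM and 0.79 nM, and CellTiter-Glo One luminescence was read after 48 h at 37°C. Viability is a per-plate percentage relative to DMSO wells, with cell-free wells as background.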

Where [1] appears, read: RPMI 5 mM glucose + 10% FBS, 0.000781 µM.
Setting [2] is: RPMI 5 mM glucose + 10% FBS, 0.00234 µM.
[3] abbreviates: RPMI 5 mM glucose + 10% FBS, 0.00702 µM.
Where [4] appears, read: RPMI 5 mM glucose + 10% FBS, 0.0211 µM.
The mark [5] stands for this setting: RPMI 5 mM glucose + 10% FBS, 0.0632 µM.
[6] abbreviates: RPMI 5 mM glucose + 10% FBS, 0.19 µM.
Setting [7] is: RPMI 5 mM glucose + 10% FBS, 0.569 µM.
Setting [8] is: RPMI 5 mM glucose + 10% FBS, 1.71 µM.
Setting [9] is: RPMI 5 mM glucose + 10% FBS, 5.12 µM.
Setting [10] is: RPMI 5 mM glucose + 10% FBS, 15.4 µM.
The mark [11] stands for this setting: RPMI 5 mM glucose + 10% FBS, 46.1 µM.

Each structure is given as a SMILES string.

On to `Cc1n[nH]c2ccc(-c3cncc(OC[C@@H](N)Cc4ccccc4)c3)cc12`, for which the cell viability amounted to 127% under setting [1]; 118% under setting [2]; 113% under setting [3]; 125% under setting [4]; 120% under setting [5]; 113% under setting [6]. Besides, the cell viability is, setting by setting: under setting [7], 110%; under setting [8], 99.7%; under setting [9], 23.6%; under setting [10], 12.9%; under setting [11], 5.8%; (RPMI 5 mM glucose + 10% dialyzed FBS, 0.000781 µM) 134%. Also, the cell viability is, setting by setting: (RPMI 5 mM glucose + 10% dialyzed FBS, 0.00234 µM) 124%; (RPMI 5 mM glucose + 10% dialyzed FBS, 0.00702 µM) 120%; (RPMI 5 mM glucose + 10% dialyzed FBS, 0.0211 µM) 114%; (RPMI 5 mM glucose + 10% dialyzed FBS, 0.0632 µM) 133%; (RPMI 5 mM glucose + 10% dialyzed FBS, 0.19 µM) 83.5%; (RPMI 5 mM glucose + 10% dialyzed FBS, 0.569 µM) 109%. The cell viability worked out at 77.9% (RPMI 5 mM glucose + 10% dialyzed FBS, 1.71 µM); 15.1% (RPMI 5 mM glucose + 10% dialyzed FBS, 5.12 µM); 8.65% (RPMI 5 mM glucose + 10% dialyzed FBS, 15.4 µM); 4.35% (RPMI 5 mM glucose + 10% dialyzed FBS, 46.1 µM).
Consider `CC(C)[C@H](C(=O)Nc1ccc(C(=O)NO)cc1)c1ccccc1`, for which the cell viability under setting [1] came to 113%; the cell viability under setting [2] turned out to be 108%; the cell viability under setting [3] worked out at 122%; the cell viability under setting [4] turned out to be 138%; the cell viability under setting [5] is 119%; the cell viability under setting [6] was determined as 131%. Also, the cell viability came to 125% under setting [7]; 118% under setting [8]; 19% under setting [9]; 8.3% under setting [10]; 8.21% under setting [11].
